According to PubChem BioAssay (NCI):
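All cell lines were grown in 96-well plates and treated with compound for 48 hours. GI50 is the concentration that inhibits growth by half. Definition used: TGI = concentration required for complete inhibition of growth.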

Tested on: COLO 205 colon
Test: growth of human tumour cells (NCI), 48 h

Compared with Fc1ccc(Nc2cc(-n3nnc4ccccc43)nc3ccccc23)cc1, Cc1sc2nc(NCCc3c[nH]c4ccc(Cl)cc34)[nH]c(=O)c2c1C is 3.3-fold lower in GI50: 5.74 µM for the first, 1.74 µM for the second.

With Nc1nc(Br)nc2c1ncn2C1CC(O)C(CO)O1 (configuration not stated) the GI50 was 13.7 µM.

Fc1ccc(Nc2cc(-n3nnc4ccccc43)nc3ccccc23)cc1 and CC(C)CC1[C@@H](OCc2ccccc2)COS(=O)N1Cc1ccccc1 (some centres not stated) cannot be ordered by TGI: > 100 µM for the first, > 100 µM for the second.

First: Nc1nc(Br)nc2c1ncn2C1CC(O)C(CO)O1 (configuration not stated)
Second: Cc1sc2nc(NCCc3c[nH]c4ccc(Cl)cc34)[nH]c(=O)c2c1C
The TGI of the first is higher: > 100 µM for the first, 3.77 µM for the second.

Tested on: HL-60(TB) leukemia
Test: growth of human tumour cells (NCI), 48 h

Compared with Fc1ccc(Nc2cc(-n3nnc4ccccc43)nc3ccccc23)cc1, Cc1sc2nc(NCCc3c[nH]c4ccc(Cl)cc34)[nH]c(=O)c2c1C is lower in GI50: > 100 µM for the first, 2.34 µM for the second.

In the case of Nc1nc(Br)nc2c1ncn2C1CC(O)C(CO)O1 (configuration not stated), the GI50 was 0.0835 µM.

Going from Fc1ccc(Nc2cc(-n3nnc4ccccc43)nc3ccccc23)cc1 to Cc1sc2nc(NCCc3c[nH]c4ccc(Cl)cc34)[nH]c(=O)c2c1C, the TGI falls from > 100 µM to 5.91 µM.

Tested on: RPMI-8226 leukemia
Test: growth of human tumour cells (NCI), 48 h

Compared with Fc1ccc(Nc2cc(-n3nnc4ccccc43)nc3ccccc23)cc1, Cc1sc2nc(NCCc3c[nH]c4ccc(Cl)cc34)[nH]c(=O)c2c1C is 7.9-fold lower in GI50: 19.3 µM for the first, 2.45 µM for the second.

Nc1nc(Br)nc2c1ncn2C1CC(O)C(CO)O1 (configuration not stated) was tested, and the GI50 was > 25 µM.

Going from Fc1ccc(Nc2cc(-n3nnc4ccccc43)nc3ccccc23)cc1 to CC(C)CC1[C@@H](OCc2ccccc2)COS(=O)N1Cc1ccccc1 (some centres not stated), the TGI falls from > 100 µM to 51 µM.

Compared with Nc1nc(Br)nc2c1ncn2C1CC(O)C(CO)O1 (configuration not stated), Cc1sc2nc(NCCc3c[nH]c4ccc(Cl)cc34)[nH]c(=O)c2c1C is lower in TGI: > 100 µM for the first, 7.9 µM for the second.

Tested on: SK-OV-3 ovarian
Test: growth of human tumour cells (NCI), 48 h

Going from Fc1ccc(Nc2cc(-n3nnc4ccccc43)nc3ccccc23)cc1 to Cc1sc2nc(NCCc3c[nH]c4ccc(Cl)cc34)[nH]c(=O)c2c1C, the GI50 falls from 8.41 µM to 3.22 µM (2.6-fold).

Nc1nc(Br)nc2c1ncn2C1CC(O)C(CO)O1 (configuration not stated) was tested, and the GI50 was > 100 µM.

Fc1ccc(Nc2cc(-n3nnc4ccccc43)nc3ccccc23)cc1 and CC(C)CC1[C@@H](OCc2ccccc2)COS(=O)N1Cc1ccccc1 (some centres not stated) cannot be ordered by TGI: > 100 µM for the first, > 100 µM for the second.

First: Nc1nc(Br)nc2c1ncn2C1CC(O)C(CO)O1 (configuration not stated)
Second: Cc1sc2nc(NCCc3c[nH]c4ccc(Cl)cc34)[nH]c(=O)c2c1C
The TGI of the first is higher: > 100 µM for the first, 14.5 µM for the second.

Tested on: NCI-H522 lung
Test: growth of human tumour cells (NCI), 48 h

Compared with Fc1ccc(Nc2cc(-n3nnc4ccccc43)nc3ccccc23)cc1, Cc1sc2nc(NCCc3c[nH]c4ccc(Cl)cc34)[nH]c(=O)c2c1C is 37-fold lower in GI50: 66.3 µM for the first, 1.79 µM for the second.

Work on Nc1nc(Br)nc2c1ncn2C1CC(O)C(CO)O1 (configuration not stated) yielded a GI50 of 0.698 µM.

Compared with Fc1ccc(Nc2cc(-n3nnc4ccccc43)nc3ccccc23)cc1, Cc1sc2nc(NCCc3c[nH]c4ccc(Cl)cc34)[nH]c(=O)c2c1C is lower in TGI: > 100 µM for the first, 3.91 µM for the second.

For Nc1nc(Br)nc2c1ncn2C1CC(O)C(CO)O1 (configuration not stated), the TGI was > 100 µM.

Tested on: MCF7 breast
Test: growth of human tumour cells (NCI), 48 h

First: Fc1ccc(Nc2cc(-n3nnc4ccccc43)nc3ccccc23)cc1
Second: Cc1sc2nc(NCCc3c[nH]c4ccc(Cl)cc34)[nH]c(=O)c2c1C
The GI50 of the first is 12-fold higher: 29.8 µM for the first, 2.47 µM for the second.

Nc1nc(Br)nc2c1ncn2C1CC(O)C(CO)O1 (configuration not stated) was tested, and the GI50 was 1.26 µM.

Fc1ccc(Nc2cc(-n3nnc4ccccc43)nc3ccccc23)cc1 and CC(C)CC1[C@@H](OCc2ccccc2)COS(=O)N1Cc1ccccc1 (some centres not stated) cannot be ordered by TGI: > 84.4 µM for the first, > 100 µM for the second.

Going from Nc1nc(Br)nc2c1ncn2C1CC(O)C(CO)O1 (configuration not stated) to Cc1sc2nc(NCCc3c[nH]c4ccc(Cl)cc34)[nH]c(=O)c2c1C, the TGI falls from > 100 µM to 7 µM.

Tested on: 786-0 renal
Test: growth of human tumour cells (NCI), 48 h

First: Fc1ccc(Nc2cc(-n3nnc4ccccc43)nc3ccccc23)cc1
Second: Cc1sc2nc(NCCc3c[nH]c4ccc(Cl)cc34)[nH]c(=O)c2c1C
The GI50 of the first is 5.5-fold higher: 13.1 µM for the first, 2.39 µM for the second.

Nc1nc(Br)nc2c1ncn2C1CC(O)C(CO)O1 (configuration not stated) showed a GI50 of 34.2 µM.

Fc1ccc(Nc2cc(-n3nnc4ccccc43)nc3ccccc23)cc1 and CC(C)CC1[C@@H](OCc2ccccc2)COS(=O)N1Cc1ccccc1 (some centres not stated) cannot be ordered by TGI: > 49.9 µM for the first, > 100 µM for the second.

Going from Nc1nc(Br)nc2c1ncn2C1CC(O)C(CO)O1 (configuration not stated) to Cc1sc2nc(NCCc3c[nH]c4ccc(Cl)cc34)[nH]c(=O)c2c1C, the TGI falls from > 100 µM to 6.23 µM.

Tested on: CAKI-1 renal
Test: growth of human tumour cells (NCI), 48 h

Compared with Fc1ccc(Nc2cc(-n3nnc4ccccc43)nc3ccccc23)cc1, Cc1sc2nc(NCCc3c[nH]c4ccc(Cl)cc34)[nH]c(=O)c2c1C is 28-fold lower in GI50: 41.5 µM for the first, 1.5 µM for the second.

Compound Nc1nc(Br)nc2c1ncn2C1CC(O)C(CO)O1 (configuration not stated) has a GI50 of 2.88 µM.

Going from Fc1ccc(Nc2cc(-n3nnc4ccccc43)nc3ccccc23)cc1 to Cc1sc2nc(NCCc3c[nH]c4ccc(Cl)cc34)[nH]c(=O)c2c1C, the TGI falls from > 68.9 µM to 3.7 µM.

For Nc1nc(Br)nc2c1ncn2C1CC(O)C(CO)O1 (configuration not stated), the TGI was > 29.9 µM.

Tested on: U251 CNS
Test: growth of human tumour cells (NCI), 48 h

First: Fc1ccc(Nc2cc(-n3nnc4ccccc43)nc3ccccc23)cc1
Second: Cc1sc2nc(NCCc3c[nH]c4ccc(Cl)cc34)[nH]c(=O)c2c1C
The GI50 of the first is 12-fold higher: 27.6 µM for the first, 2.26 µM for the second.

Work on Nc1nc(Br)nc2c1ncn2C1CC(O)C(CO)O1 (configuration not stated) yielded a GI50 of 11.4 µM.

Fc1ccc(Nc2cc(-n3nnc4ccccc43)nc3ccccc23)cc1 and CC(C)CC1[C@@H](OCc2ccccc2)COS(=O)N1Cc1ccccc1 (some centres not stated) cannot be ordered by TGI: > 76.1 µM for the first, > 100 µM for the second.

First: Nc1nc(Br)nc2c1ncn2C1CC(O)C(CO)O1 (configuration not stated)
Second: Cc1sc2nc(NCCc3c[nH]c4ccc(Cl)cc34)[nH]c(=O)c2c1C
The TGI of the first is higher: > 100 µM for the first, 6.94 µM for the second.

Tested on: TK-10 renal
Test: growth of human tumour cells (NCI), 48 h

Compared with Fc1ccc(Nc2cc(-n3nnc4ccccc43)nc3ccccc23)cc1, Cc1sc2nc(NCCc3c[nH]c4ccc(Cl)cc34)[nH]c(=O)c2c1C is 6.7-fold lower in GI50: 23.5 µM for the first, 3.5 µM for the second.

In the case of Nc1nc(Br)nc2c1ncn2C1CC(O)C(CO)O1 (configuration not stated), the GI50 was > 100 µM.

Fc1ccc(Nc2cc(-n3nnc4ccccc43)nc3ccccc23)cc1 and CC(C)CC1[C@@H](OCc2ccccc2)COS(=O)N1Cc1ccccc1 (some centres not stated) cannot be ordered by TGI: > 77.8 µM for the first, > 100 µM for the second.

Going from Nc1nc(Br)nc2c1ncn2C1CC(O)C(CO)O1 (configuration not stated) to Cc1sc2nc(NCCc3c[nH]c4ccc(Cl)cc34)[nH]c(=O)c2c1C, the TGI falls from > 100 µM to 11.5 µM.

Tested on: MDA-MB-231 breast
Test: growth of human tumour cells (NCI), 48 h

Going from Fc1ccc(Nc2cc(-n3nnc4ccccc43)nc3ccccc23)cc1 to Cc1sc2nc(NCCc3c[nH]c4ccc(Cl)cc34)[nH]c(=O)c2c1C, the GI50 falls from 8.44 µM to 2.59 µM (3.3-fold).

In the case of Nc1nc(Br)nc2c1ncn2C1CC(O)C(CO)O1 (configuration not stated), the GI50 was > 71.2 µM.

Fc1ccc(Nc2cc(-n3nnc4ccccc43)nc3ccccc23)cc1 and CC(C)CC1[C@@H](OCc2ccccc2)COS(=O)N1Cc1ccccc1 (some centres not stated) cannot be ordered by TGI: > 49.2 µM for the first, > 100 µM for the second.

Going from Nc1nc(Br)nc2c1ncn2C1CC(O)C(CO)O1 (configuration not stated) to Cc1sc2nc(NCCc3c[nH]c4ccc(Cl)cc34)[nH]c(=O)c2c1C, the TGI falls from > 100 µM to 8.74 µM.

Tested on: T-47D breast
Test: growth of human tumour cells (NCI), 48 h

Compared with Fc1ccc(Nc2cc(-n3nnc4ccccc43)nc3ccccc23)cc1, Cc1sc2nc(NCCc3c[nH]c4ccc(Cl)cc34)[nH]c(=O)c2c1C is lower in TGI: > 100 µM for the first, 12.7 µM for the second.

For Nc1nc(Br)nc2c1ncn2C1CC(O)C(CO)O1 (configuration not stated), the TGI was > 100 µM.

Going from Nc1nc(Br)nc2c1ncn2C1CC(O)C(CO)O1 (configuration not stated) to Cc1sc2nc(NCCc3c[nH]c4ccc(Cl)cc34)[nH]c(=O)c2c1C, the GI50 falls from > 60.7 µM to 2.98 µM.

Tested on: MDA-MB-435
Test: growth of human tumour cells (NCI), 48 h

First: Fc1ccc(Nc2cc(-n3nnc4ccccc43)nc3ccccc23)cc1
Second: Cc1sc2nc(NCCc3c[nH]c4ccc(Cl)cc34)[nH]c(=O)c2c1C
The GI50 of the first is higher: > 50.7 µM for the first, 3.31 µM for the second.

Nc1nc(Br)nc2c1ncn2C1CC(O)C(CO)O1 (configuration not stated) was tested, and the GI50 was 11.6 µM.

Fc1ccc(Nc2cc(-n3nnc4ccccc43)nc3ccccc23)cc1 and CC(C)CC1[C@@H](OCc2ccccc2)COS(=O)N1Cc1ccccc1 (some centres not stated) cannot be ordered by TGI: > 100 µM for the first, > 100 µM for the second.

Going from Nc1nc(Br)nc2c1ncn2C1CC(O)C(CO)O1 (configuration not stated) to Cc1sc2nc(NCCc3c[nH]c4ccc(Cl)cc34)[nH]c(=O)c2c1C, the TGI falls from > 100 µM to 11.3 µM.

Tested on: SW-620 colon
Test: growth of human tumour cells (NCI), 48 h

First: Fc1ccc(Nc2cc(-n3nnc4ccccc43)nc3ccccc23)cc1
Second: Cc1sc2nc(NCCc3c[nH]c4ccc(Cl)cc34)[nH]c(=O)c2c1C
The GI50 of the first is higher: > 100 µM for the first, 2.64 µM for the second.

Nc1nc(Br)nc2c1ncn2C1CC(O)C(CO)O1 (configuration not stated) showed a GI50 of 16.5 µM.

Fc1ccc(Nc2cc(-n3nnc4ccccc43)nc3ccccc23)cc1 and CC(C)CC1[C@@H](OCc2ccccc2)COS(=O)N1Cc1ccccc1 (some centres not stated) cannot be ordered by TGI: > 100 µM for the first, > 100 µM for the second.

First: Nc1nc(Br)nc2c1ncn2C1CC(O)C(CO)O1 (configuration not stated)
Second: Cc1sc2nc(NCCc3c[nH]c4ccc(Cl)cc34)[nH]c(=O)c2c1C
The TGI of the first is higher: > 100 µM for the first, 10.9 µM for the second.

Tested on: NCI/ADR-RES ovarian
Test: growth of human tumour cells (NCI), 48 h

First: Fc1ccc(Nc2cc(-n3nnc4ccccc43)nc3ccccc23)cc1
Second: Nc1nc(Br)nc2c1ncn2C1CC(O)C(CO)O1 (configuration not stated)
The GI50 of the first is 150-fold higher: 56.3 µM for the first, 0.384 µM for the second.

Fc1ccc(Nc2cc(-n3nnc4ccccc43)nc3ccccc23)cc1 and CC(C)CC1[C@@H](OCc2ccccc2)COS(=O)N1Cc1ccccc1 (some centres not stated) cannot be ordered by TGI: > 100 µM for the first, > 100 µM for the second.

For Nc1nc(Br)nc2c1ncn2C1CC(O)C(CO)O1 (configuration not stated), the TGI was > 100 µM.
